Measured values taken from US20240270748A1 (Merck Patent GmbH, priority 2021, published 2024).

test system: YAP-TEAD interaction; experiment: SK-HEP-1 reporter assay (8xTEAD responsive elements driving NanoLuc luciferase); format: cell-based; conditions: Homo sapiens, SK-HEP1, SK-HEP-1 reporter assay; class symbols
Method: To identify inhibitors of YAP-TEAD interaction, 8×TEAD responsive elements driving the NanoLuc® luciferase gene were stably integrated into SK-HEP-1 cells (ECACC #: 91091816).
For the assay, cells were treated in duplicates with the test compounds in a 10-point dose, with the top concentration starting at 30 μM (final concentration in assay). After a 24 hour incubation at 37° C., 95% rH, and 5% CO2, a luciferase substrate/lysis reagent mix (NanoGlo™, Promega) was added to the cells, allowing the quantification of cellular luciferase activity.
Cell Media: The cells were cultured in the following media: MEM, +10% FBS, +1× GlutaMAX, +1 mM Sodium-Pyruvate, +100 μM Non-essential amino acids, +0.1 mg/ml Hygromycin. The media used for the assay was: MEM (w/o Phenol Red), +10% FBS, +1× GlutaMAX, +1 mM Sodium-Pyruvate, +100 μM Non-essential amino acids, +0.5% Pen/Strep
Reagents: The reagents used are listed below:
Cell culture: The cells were examined using an inverted microscope to check for health and cell density. To dissociate adherent cells, the monolayer of cells was washed once with pre-warmed PBS. After removing the PBS, 3 ml pre-warmed Accutase® was added to a F75 flask, dispersed evenly and the flask was allowed to sit in incubator for ˜4-5 minutes.
When a single cell suspension was obtained, 7 ml of prewarmed growth media was added and resuspended with the cells. The cell suspension was transferred to a sterile 15 ml conical centrifuge tube, and spun for 5 min at 300×g, RT. The supernatant was discarded and the pellet was resuspended in 10 ml of pre-warmed growth media.
The total cell count was determined, and 20 μl of the desired cell number was added to each well of a 384 well plate using a Multidrop Combi. The plates were then incubated for 24 hours at 37° C., 95% rH, and 5% C02.
Compound treatment: 24 hours after seeding, the cells were treated with compounds.
A 1:333 dilution of compounds, diluted in DMSO, was made to get a final concentration of 0.3% DMSO per well. To transfer the compounds to the assay plate, […] was shot from Labcyte low dead volume plates to the cell plates containing 20 μl media/well with the ECHO 555 liquid handling system.
After treatment, the cells were fed with 20 μl fresh pre-warmed assay media using a Multidrop combi.
The assay plates were then incubated for another 24 h at 37° C., 95% rH, and 5% CO2.
Luciferase readout: 24 h after treatment, the plates were taken out of the incubator and were allowed to equilibrate to RT. 30 μl of NanoGlo® reagent was added to the plates in the dark. Plates were shaken for 20 min on a Teleshake (˜1500 rpm) in the dark. The luminescence was then measured using an EnVision microplate reader. The IC50 values were generated using Genedata Screener®.

Q: With `Cn1cc2c3cc(C4CC(n5nccn5)=NO4)ccc3n(-c3ccc(C(F)(F)F)cc3)c2n1` (stereo not drawn) [Example C38, 2-(5-{2-methyl-8-[4-(trifluoromethyl)phenyl]-2H,8H-pyrazolo[3,4-b]indol-5-yl}-4,5-dihydro-1,2-oxazol-3-yl)-2H-1,2,3-triazole] as the molecule, how does the IC50 read?
A: > 10 µM

Q: With `Cn1cc2c3cc(S(=O)(=O)O)ccc3n(-c3ccc(C(F)(F)F)cc3)c2n1` [Example C43, 2-methyl-8-[4-(trifluoromethyl)phenyl]-2H,8H-pyrazolo[3,4-b]indole-5-sulfonic acid] as the molecule, how does the IC50 read?
A: 0.1 to 10 µM

Q: For `Cc1snc2c1c1cc(C(=O)N3CC[C@H](O)C3)ccc1n2-c1ccc(C(F)(F)F)cc1` [Example C49, (3S)-1-{3-methyl-8-[4-(trifluoromethyl)phenyl]-8H-[1,2]thiazolo [3,4-b]indole-5-carbonyl}pyrrolidin-3-ol], which IC50 is on record?
A: 0.1 to 10 µM

Q: Which IC50 does the source give for `Cc1snc2c1c1cc(C(=O)N3CC[C@@H](O)C3)ccc1n2-c1ccc(C(F)(F)F)cc1` [Example C54, (3R)-1-{3-methyl-8-[4-(trifluoro-methyl)phenyl]-8H-[1,2]thiazolo[3,4-b]indole-5-carbonyl}pyrrolidin-3-ol] here?
A: 0.1 to 10 µM

Q: Which IC50 does the source give for `Cc1snc2c1c1cc(C(=O)NC[C@H](O)C(F)(F)F)ccc1n2-c1ccc(C(F)(F)F)cc1` [Example C55, 3-methyl-N-[(2S)-3,3,3-trifluoro-2-hydroxypropyl]-8-[4-(trifluoro-methyl)phenyl]-8H-[1,2]thiazolo[3,4-b]indole-5-carboxamide] here?
A: 0.1 to 10 µM

Q: Which IC50 does the source give for `CNCCC(C)NC(=O)c1ccc2c(c1)c1cn(C)nc1n2-c1ccc(C(F)(F)F)cc1` (stereo not drawn) [Example C58, 2-methyl-N-[4-(methylamino)butan-2-yl]-8-[4-(trifluoromethyl)phenyl]-2H,8H-pyrazolo[3,4-b]indole-5-carboxamide] here?
A: 0.1 to 10 µM

Q: With `Cn1cc2c3cc(C(=O)N4CC(C#N)C4)ccc3n(-c3ccc(C(F)(F)F)cc3)c2n1` [Example C59, 1-{2-methyl-8-[4-(trifluoromethyl)phenyl]-2H,8H-pyrazolo[3,4-b]indole-5-carbonyl}azetidine-3-carbonitrile] as the molecule, how does the IC50 read?
A: 0.1 to 10 µM

Q: Which IC50 does the source give for `Cn1cc2c3cc(C(=O)N4CC(CF)C4)ccc3n(-c3ccc(C(F)(F)F)cc3)c2n1` [Example C60, 3-(fluoromethyl)-1-{2-methyl-8-[4-(trifluoromethyl)phenyl]-2H,8H-pyrazolo[3,4-b]indole-5-carbonyl}azetidine] here?
A: 0.1 to 10 µM

Q: For `Cc1snc2c1c1cc(C(=O)N[C@H](CO)c3ccccn3)ccc1n2-c1ccc(C(F)(F)F)cc1` [Example C69, N-[(1S)-2-hydroxy-1-(pyridin-2-yl)ethyl]-3-methyl-8-[4-(trifluoromethyl)phenyl]-8H-[1,2]thiazolo[3,4-b]indole-5-carboxamide], which IC50 is on record?
A: 0.1 to 10 µM

Q: How did the IC50 turn out when `CCCNS(=O)(=O)c1ccc2c(c1)c1cn(C)nc1n2-c1ccc(C(F)(F)F)cc1` [Example C71, 2-methyl-N-propyl-8-[4-(trifluoromethyl)phenyl]-2H,8H-pyrazolo[3,4-b]indole-5-sulfonamide] was run?
A: 0.1 to 10 µM

Q: Which IC50 does the source give for `Cc1snc2c1c1cc(C(=O)NCc3cnccn3)ccc1n2-c1ccc(C(F)(F)F)cc1` [Example C78, 3-methyl-N-[(pyrazin-2-yl)methyl]-8-[4-(trifluoromethyl)phenyl]-8H-[1,2]thiazolo[3,4-b]indole-5-carboxamide] here?
A: 0.01 to 0.1 µM

Q: With `Cc1snc2c1c1cc(C(=O)NCc3nccn3C)ccc1n2-c1ccc(C(F)(F)F)cc1` [Example C79, 3-methyl-N-[(1-methyl-1H-imidazol-2-yl)methyl]-8-[4-(trifluoromethyl)phenyl]-8H-[1,2]thiazolo[3,4-b]indole-5-carboxamide] as the molecule, how does the IC50 read?
A: 0.1 to 10 µM

Q: Which IC50 does the source give for `Cc1snc2c1c1cc(C(=O)NC3(CO)CCC3)ccc1n2-c1ccc(C(F)(F)F)cc1` [Example C82, N-[1-(hydroxymethyl)cyclobutyl]-3-methyl-8-[4-(trifluoromethyl)phenyl]-8H-[1,2]thiazolo[3,4-b]indole-5-carboxamide] here?
A: 0.1 to 10 µM

Q: With `Cc1snc2c1c1cc(C(=O)N[C@@H](CO)C(C)C)ccc1n2-c1ccc(C(F)(F)F)cc1` [Example C92, N-[(2R)-1-hydroxy-3-methylbutan-2-yl]-3-methyl-8-[4-(trifluoromethyl)phenyl]-8H-[1,2]thiazolo[3,4-b]indole-5-carboxamide] as the molecule, how does the IC50 read?
A: 0.01 to 0.1 µM

Q: With `Cc1snc2c1c1cc(C(=O)N[C@H](CO)C3CCC3)ccc1n2-c1ccc(C(F)(F)F)cc1` [Example C100, N-[(1S)-1-cyclobutyl-2-hydroxyethyl]-3-methyl-8-[4-(trifluoromethyl)phenyl]-8H-[1,2]thiazolo[3,4-b]indole-5-carboxamide] as the molecule, how does the IC50 read?
A: 0.1 to 10 µM

Q: How did the IC50 turn out when `C[C@@H](NC(=O)c1ccc2c(c1)c1cn(C)nc1n2-c1ccc(C(F)(F)F)cc1)c1ccccn1` [Example C107, 2-methyl-N-[(1R)-1-(pyridin-2-yl)ethyl]-8-[4-(trifluoromethyl)phenyl]-2H,8H-pyrazolo[3,4-b]indole-5-carboxamide] was run?
A: 0.1 to 10 µM

Q: How did the IC50 turn out when `COCCNC(=O)c1ccc2c(n1)c1cn(C)nc1n2-c1ccc(C(F)(F)F)cc1` [Example C112, N-(2-methoxyethyl)-4-methyl-7-[4-(trifluoromethyl)phenyl]-4,5,7,12-tetraazatricyclo [6.4.0.0^2,6]dodeca-1(8),2,5,9,11-pentaene-11-carboxamide] was run?
A: 0.1 to 10 µM

Q: `Cn1cc2c3nc(C(=O)NCCO)ccc3n(-c3ccc(C(F)(F)F)cc3)c2n1` [Example C113, N-(2-hydroxyethyl)-4-methyl-7-[4-(trifluoromethyl)phenyl]-4,5,7,12-tetraazatricyclo [6.4.0.0^2,6]dodeca-1(8),2,5,9,11-pentaene-11-carboxamide] was tested. Which IC50 did it give?
A: 0.1 to 10 µM

Q: For `C[C@@H](NC(=O)c1ccc2c(n1)c1cn(C)nc1n2-c1ccc(C(F)(F)F)cc1)c1ccccn1` [Example C114, 4-methyl-N-[(1R)-1-(pyridin-2-yl)ethyl]-7-[4-(trifluoromethyl)phenyl]-4,5,7,12-tetraazatricyclo[6.4.0.0^2,6]dodeca-1(8),2,5,9,11-pentaene-11-carboxamide], which IC50 is on record?
A: 0.1 to 10 µM

Q: With `Cn1cc2c3nc(CO)ccc3n(-c3ccc(C(F)(F)F)cc3)c2n1` [Example C116, {4-methyl-7-[4-(trifluoromethyl)phenyl]-4,5,7,12-tetraazatricyclo [6.4.0.0^2,6]dodeca-1(8),2,5,9,11-pentaen-11-yl}methanol] as the molecule, how does the IC50 read?
A: 0.1 to 10 µM

Q: With `Cn1cc2c3cc(C(N)=O)cnc3n(-c3ccc(C(F)(F)F)cc3)c2n1` [Example C118, 4-methyl-7-[4-(trifluoromethyl)phenyl]-4,5,7,9-tetraazatricyclo[6.4.0.0^2,6]dodeca-1(8),2,5,9,11-pentaene-11-carboxamide] as the molecule, how does the IC50 read?
A: 0.1 to 10 µM

Q: Which IC50 does the source give for `C[C@H](NC(=O)c1ccc2c(c1)c1cn(C)nc1n2-c1ccc(C(F)(F)F)cc1)c1ccncc1` [Example C127, 2-methyl-N-[(1S)-1-(pyridin-4-yl)ethyl]-8-[4-(trifluoromethyl)phenyl]-2H,8H-pyrazolo[3,4-b]indole-5-carboxamide] here?
A: 0.1 to 10 µM

Q: How did the IC50 turn out when `Cn1cnc2c1c1cc(CO)ccc1n2-c1ccc(C(F)(F)F)cc1` [Example C132, {1-methyl-4-[4-(trifluoromethyl)phenyl]-1H,4H-imidazo[4,5-b]indol-7-yl}methanol] was run?
A: 0.1 to 10 µM

Q: Which IC50 does the source give for `Cn1cc2c3cc(C(=O)NC[C@H](O)C(F)(F)F)ccc3n(-c3ccc(C(F)(F)F)cc3)c2n1` [Example C133, 2-methyl-N-[(2S)-3,3,3-trifluoro-2-hydroxypropyl]-8-[4-(trifluoromethyl)phenyl]-2H,8H-pyrazolo[3,4-b]indole-5-carboxamide] here?
A: 0.1 to 10 µM

same assay, conditions: Homo sapiens, SK-HEP1, SK-HEP-1 reporter assay; n.d. = value not detectable below threshold given in parentheses; ND = not determinable within the entire range

Q: With `Cn1nnc2c3cc(S(=O)(=O)O)ccc3n(-c3ccc(C(F)(F)F)cc3)c21` [Example C44, 3-methyl-4-[4-(trifluoromethyl)phenyl]-3H,4H-[1,2,3]triazolo[4,5-b]indole-7-sulfonic acid] as the molecule, how does the IC50 read?
A: > 30 µM

Q: With `Cn1cc2c3cc(S(=O)(=O)N4CCCC4)ccc3n(-c3ccc(C(F)(F)F)cc3)c2n1` [Example C84, 1-({2-methyl-8-[4-(trifluoromethyl)phenyl]-2H,8H-pyrazolo[3,4-b]indol-5-yl}sulfonyl)pyrrolidine] as the molecule, how does the IC50 read?
A: > 10 µM

Q: For `Cn1cc2c3nc(C(=O)N=S(C)(=O)CCO)ccc3n(-c3ccc(C(F)(F)F)cc3)c2n1` (stereo not drawn) [Example C109, N-[(2-hydroxyethyl)(methyl)oxo-λ^6-sulfanylidene]-4-methyl-7-[4-(trifluoromethyl)phenyl]-4,5,7,12-tetraazatricyclo [6.4.0.0^2,6]dodeca-1(8),2,5,9,11-pentaene-11-carboxamide], which IC50 is on record?
A: > 30 µM
